Laboratory results as given in EP1910527B1, “MALTOSE-1-PHOSPHATE-PRODUCING ENZYME” (Kao Corporation, priority 2005, dated 2007).

Tests used:
M-1-P-producing enzyme [1] = assay: Maltose transfer reaction without phosphate, HPLC analysis of products; type: biochemical, Corynebacterium glutamicum JCM1321; conditions: 2.0% substrate, 0.16 U/mL enzyme, one hour at 37°C
Experimental: As substrates, 2% dextrin MAX 1000 (Matsutani Chemical) and 1M phosphate buffer (pH 7) were employed. To the substrates, a suitably diluted enzyme was added, and the mixture was incubated for one hour at 37°C, followed by quantification of the produced […] through HPLC. Specifically, quantification of […] was performed through use of a DX500 chromatography system (product of DIONEX Corporation) (column: CarboPac PA1 (4x250 mm), detector: ED40 pulsed amperometric detector, eluent: (solution A) 100mM sodium hydroxide; (solution B) 100mM sodium hydroxide containing 1M sodium acetate). Linear gradient analysis was employed (initial concentration: solution.A 90% : solution B 10%, 0-17 min.: solution A 18.5% : solution B 81.5%). As standard substances, 100mM and 50mM […] products (product of SIGMA) were employed. […] One enzyme unit (1U) is defined as the amount of enzyme that produces 1 μM of […] per minute. 0.16 U/mL […]-producing enzyme was allowed to react with each of the substrates having different chain lengths (glucose, maltose, maltotriose, maltotetraose, maltopentaose, maltohexaose (Seikagaku Corporation)) (2.0%) for one hour at 37°C, and the reaction mixture was subjected to HPLC for analysis in a manner similar to that described in Example 1 (the results are represented as peak area). The retention times of maltooligosaccharides (DP=1 to 11) were estimated through analysis of dextrin (Matsutani Chemical).

M-1-P-producing enzyme [2] = assay: Substrate specificity: production of M-1-P from phosphate and saccharide substrates, HPLC quantification; type: biochemical, Corynebacterium glutamicum JCM1321; conditions: 2.5% substrate, 250mM phosphate buffer (pH 7), 0.16 U/mL enzyme, 15 hours at 37°C
Experimental: As substrates, 2% dextrin MAX 1000 (Matsutani Chemical) and 1M phosphate buffer (pH 7) were employed. To the substrates, a suitably diluted enzyme was added, and the mixture was incubated for one hour at 37°C, followed by quantification of the produced […] through HPLC. Specifically, quantification of […] was performed through use of a DX500 chromatography system (product of DIONEX Corporation) (column: CarboPac PA1 (4x250 mm), detector: ED40 pulsed amperometric detector, eluent: (solution A) 100mM sodium hydroxide; (solution B) 100mM sodium hydroxide containing 1M sodium acetate). Linear gradient analysis was employed (initial concentration: solution.A 90% : solution B 10%, 0-17 min.: solution A 18.5% : solution B 81.5%). As standard substances, 100mM and 50mM […] products (product of SIGMA) were employed. […] One enzyme unit (1U) is defined as the amount of enzyme that produces 1 μM of […] per minute. To 2.5% Dextrin MAX 1000 (Matsutani Chemical) and 250mM phosphate buffer (pH 7), 0.16 U/mL M-1-P-producing enzyme was added, and the mixture was allowed to react for 15 hours at 37°C. In a manner similar to that described in Example 1, […] was quantified. […] To 250mM Phosphate buffer (pH 7) and each of substrates having different chain lengths (glucose, maltose, maltotriose, maltotetraose, maltopentaose, maltohexaose (Seikagaku Corporation)) (2.5%), 0.16 U/mL M-1-P-producing enzyme was added, and the mixture was allowed to react for 15 hours at 37°C. In a manner similar to that described in Example 1, […] was quantified.

Row | SMILES | Product (Peak area x 10^6): DP=3 (M-1-P-producing enzyme [1]) | Product (Peak area x 10^6): DP=4 (M-1-P-producing enzyme [1]) | Product (Peak area x 10^6): DP=5 (M-1-P-producing enzyme [1]) | Product (Peak area x 10^6): DP=6 (M-1-P-producing enzyme [1]) | Product (Peak area x 10^6): DP=7 (M-1-P-producing enzyme [1]) | Product (Peak area x 10^6): DP=8 (M-1-P-producing enzyme [1]) | Product (Peak area x 10^6): DP=9 (M-1-P-producing enzyme [1]) | Product (Peak area x 10^6): DP=10 (M-1-P-producing enzyme [1]) | Product (Peak area x 10^6): DP=11 (M-1-P-producing enzyme [1]) | Product (Peak area x 10^6): Glucose (M-1-P-producing enzyme [1]) | Product (Peak area x 10^6): Maltose (M-1-P-producing enzyme [1]) | Amount of maltose-1-phosphate produced (M-1-P-producing enzyme [2])
1 | OC[C@H]1OC(O)[C@H](O)[C@@H](O)[C@@H]1O (some centres unmarked) [Glucose] | 0.00 x 10^6 | 0.00 x 10^6 | 0.00 x 10^6 | 0.00 x 10^6 | 0.00 x 10^6 | 0.00 x 10^6 | 0.00 x 10^6 | 0.00 x 10^6 | 0.00 x 10^6 | 65.97 x 10^6 | 0.00 x 10^6 | –
2 | OC[C@H]1O[C@H](O[C@H]2[C@H](O)[C@@H](O)[C@@H](O[C@H]3[C@H](O)[C@@H](O)[C@@H](O[C@H]4[C@H](O)[C@@H](O)[C@@H](O[C@H]5[C@H](O)[C@@H](O)[C@@H](O[C@H]6[C@H](O)[C@@H](O)C(O)O[C@@H]6CO)O[C@@H]5CO)O[C@@H]4CO)O[C@@H]3CO)O[C@@H]2CO)[C@H](O)[C@@H](O)[C@@H]1O (some centres unmarked) [Maltohexaose] | 0.37 x 10^6 | 10.20 x 10^6 | 0.00 x 10^6 | 8.87 x 10^6 | 0.00 x 10^6 | 5.04 x 10^6 | 0.00 x 10^6 | 3.96 x 10^6 | 0.00 x 10^6 | 0.05 x 10^6 | 0.61 x 10^6 | 49.6 µM
3 | OC[C@H]1O[C@H](O[C@H]2[C@H](O)[C@@H](O)[C@@H](O[C@H]3[C@H](O)[C@@H](O)[C@@H](O[C@H]4[C@H](O)[C@@H](O)[C@@H](O[C@H]5[C@H](O)[C@@H](O)C(O)O[C@@H]5CO)O[C@@H]4CO)O[C@@H]3CO)O[C@@H]2CO)[C@H](O)[C@@H](O)[C@@H]1O (some centres unmarked) [Maltopentaose] | 0.51 x 10^6 | 0.58 x 10^6 | 26.40 x 10^6 | 0.00 x 10^6 | 0.52 x 10^6 | 0.00 x 10^6 | 0.00 x 10^6 | 0.00 x 10^6 | 0.00 x 10^6 | 0.09 x 10^6 | 0.27 x 10^6 | 1.04 µM
4 | OC[C@H]1O[C@H](O[C@H]2[C@H](O)[C@@H](O)[C@@H](O[C@H]3[C@H](O)[C@@H](O)[C@@H](O[C@H]4[C@H](O)[C@@H](O)[C@@H](O[C@H]5[C@H](O)[C@@H](O)[C@@H](O[C@H]6[C@H](O)[C@@H](O)[C@@H](O[C@H]7[C@H](O)[C@@H](O)C(O)O[C@@H]7CO)O[C@@H]6CO)O[C@@H]5CO)O[C@@H]4CO)O[C@@H]3CO)O[C@@H]2CO)[C@H](O)[C@@H](O)[C@@H]1O (some centres unmarked) [Maltoheptaose] | 0.12 x 10^6 | 0.19 x 10^6 | 9.59 x 10^6 | 0.00 x 10^6 | 6.36 x 10^6 | 0.00 x 10^6 | 3.42 x 10^6 | 0.00 x 10^6 | 3.47 x 10^6 | 0.11 x 10^6 | 0.28 x 10^6 | 96.1 µM

The remaining lines, values ahead:

Row | Product (Peak area x 10^6): DP=3 (M-1-P-producing enzyme [1]) | Product (Peak area x 10^6): DP=4 (M-1-P-producing enzyme [1]) | Product (Peak area x 10^6): DP=5 (M-1-P-producing enzyme [1]) | Product (Peak area x 10^6): DP=6 (M-1-P-producing enzyme [1]) | Product (Peak area x 10^6): DP=7 (M-1-P-producing enzyme [1]) | Product (Peak area x 10^6): DP=8 (M-1-P-producing enzyme [1]) | Product (Peak area x 10^6): DP=9 (M-1-P-producing enzyme [1]) | Product (Peak area x 10^6): DP=10 (M-1-P-producing enzyme [1]) | Product (Peak area x 10^6): DP=11 (M-1-P-producing enzyme [1]) | Product (Peak area x 10^6): Glucose (M-1-P-producing enzyme [1]) | Product (Peak area x 10^6): Maltose (M-1-P-producing enzyme [1]) | Amount of maltose-1-phosphate produced (M-1-P-producing enzyme [2]) | SMILES
5 | 0.27 x 10^6 | 0.00 x 10^6 | 0.00 x 10^6 | 0.00 x 10^6 | 0.00 x 10^6 | 0.00 x 10^6 | 0.00 x 10^6 | 0.00 x 10^6 | 0.00 x 10^6 | 0.19 x 10^6 | 46.79 x 10^6 | – | OC[C@H]1O[C@H](O[C@H]2[C@H](O)[C@@H](O)C(O)O[C@@H]2CO)[C@H](O)[C@@H](O)[C@@H]1O (mixture of isomers) [Maltose]
6 | 33.27 x 10^6 | 0.12 x 10^6 | 0.00 x 10^6 | 0.00 x 10^6 | 0.00 x 10^6 | 0.00 x 10^6 | 0.00 x 10^6 | 0.00 x 10^6 | 0.00 x 10^6 | 0.52 x 10^6 | 1.84 x 10^6 | – | OC[C@H]1O[C@H](O[C@H]2[C@H](O)[C@@H](O)[C@@H](O[C@H]3[C@H](O)[C@@H](O)C(O)O[C@@H]3CO)O[C@@H]2CO)[C@H](O)[C@@H](O)[C@@H]1O (some centres unmarked) [Maltotriose]
7 | 1.25 x 10^6 | 30.80 x 10^6 | 0.00 x 10^6 | 0.36 x 10^6 | 0.00 x 10^6 | 0.00 x 10^6 | 0.00 x 10^6 | 0.00 x 10^6 | 0.00 x 10^6 | 0.19 x 10^6 | 0.15 x 10^6 | – | OC[C@H]1O[C@H](O[C@H]2[C@H](O)[C@@H](O)[C@@H](O[C@H]3[C@H](O)[C@@H](O)[C@@H](O[C@H]4[C@H](O)[C@@H](O)C(O)O[C@@H]4CO)O[C@@H]3CO)O[C@@H]2CO)[C@H](O)[C@@H](O)[C@@H]1O (some centres unmarked) [Maltotetraose]
